Patent publication US11617708B2, “Cosmetic composition capable of strengthening epidermal tight junctions for the prevention and/or treatment of atopic dermatitis” (NAOS INSTITUTE OF LIFE SCIENCE, priority 2020, dated 2023)

Tested on: claudin-1
Experiment: Expression of claudin-1 by in situ immunolabelling in an in vitro cell model of atopic dermatitis (calcium-differentiated keratinocytes inhibited by alarmins)
Assay type: cell-based, human
Experimental: • cell type: normal human epidermal keratinocytes (NHEK; reference: Bioalternatives K34 1), used at 3rd passage—culture conditions: 37° C., 5% CO2 • culture medium: Keratinocyte-SFM complemented with Epidermal Growth Factor (or EGF) at a concentration of 0.25 ng/mL, pituitary extract (PE) at a concentration of 25 μg/mL and gentamycin at a concentration of 25 μg/mL • assay medium used for this example: Keratinocyte-SFM complemented with gentamycin at a concentration of 25 μg/mL. […]
For each condition, the analysis was carried out from 30 image quantifications (n=30) except for the control conditions produced from 60 image quantifications (n=60). A first evaluation of the results was carried out by taking all of the quantifications into account, then a second solely with the results with replicated cultures, i.e. with 3 replications (n=3), except for the control conditions which were carried out with 6 replications (n=6). […]
Labelling was quantified by measuring the intensity of fluorescence of the proteins with respect to the total number of cells identified by staining with bis-benzimide (integration of digital data by the Developer Toolbox 1.5 software, GE Health Care).
The intergroup comparisons were carried out with the aid of the bilateral unpaired Student t-assay. […] However, for n<5, the calculated data were provided by way of indication only. […]

SMILES	effect on the expression of claudin-1 (% with respect to T+, inhibited control = 100%) (NHEK differentiated with CaCl2 0.75 mM, compounds 1 h before alarmins (histamine 50 μM, IL-33 100 ng/mL, IL-1β 100 ng/mL), 72 h, arginine 0.02-0.2%, glycosylceramides 0.0003-0.003%, FIG. 1)	expression of claudin-1 after differentiation with CaCl2 (NHEK, CaCl2 0.75 mM, without alarmins, versus not stimulated/not differentiated control)
N=C(N)NCCC[C@H](N)C(=O)O [arginine]	significantly reversed the inhibiting effect of the mixture of alarmins on the expression of claudin-1	–
[Ca+2].[Cl-].[Cl-] [CaCl2]	–	induced an increase in the expression of the analysed tight junctions protein (claudin-1)
